From paper PMC4280898, “Diazido Mixed-Amine Platinum(IV) Anticancer Complexes Activatable by Visible-Light Form Novel DNA Adducts” (Chemistry (Weinheim an Der Bergstrasse, Germany), 2013) come the findings set out here.

The test system of the experiment is calf thymus DNA. The experiment is described as follows: Binding to calf thymus DNA (differential pulse polarography). The note with it: in the dark; ri=0.05, 10 mM NaClO4, 310 K. On the procedure: Binding to calf thymus DNA: Samples of double-helical calf thymus DNA (32 μg mL^−1) were treated with the Pt complexes at the ri=0.05 (ri is defined as the molar ratio of free platinum complex to nucleotide phosphates at the onset of incubation with DNA) in NaClO4 (10 mM) and incubated at 310 K in the dark for complexes 5 or 6 (Figure 7 C and D). For complexes 1 or 2, samples were irradiated continuously with 420 nm light for 30 min and then further incubated in the dark for up to 24 h so that the activated forms of the complexes could bind DNA (Figure 7 A and B). The amount of Pt bound to DNA increased with time for all four complexes. […]
the UKS method with the unrestricted PBE1PBE functional was employed. […] Thirty-two singlet and eight triplet excited states with the corresponding oscillator strengths were determined with a Time-dependent Density Functional Theory (TDDFT)[15] calculation. […]
assayed by differential pulse polarography for free, unbound platinum.[16] The amount of platinum bound to DNA was calculated by subtracting the amount of free (unbound) platinum from the total amount of platinum present in the reaction. […]
This fragment contained T7 RNA polymerase promoter (in the upper strand close to its 3'-end). […] The fragments produced in RNA synthesis on the template modified by the platinum complexes were analysed by a 6% polyacrylamide/8M urea sequencing gel. […]

“And” between values parts separate entries of the source, which are not always exact repeats. Identical values can stand only once.

Regarding `C[NH2+][Pt@SP3-2]([Cl])([Cl])[n+]1ccccc1` [Complex 5, trans-[PtCl2(MA)(Py)]], the “Pt bound after 24 h” value was 80(±5) % and 80±5%.

`C[NH2+][Pt@SP3-2]([Cl])([Cl])[n+]1ccsc1` [Complex 6, trans-[PtCl2(MA)(Tz)]]: the “Pt bound after 24 h” value was 63(±5) % and 63±5%.
